Experimental data from patent US12077503B2, “Substituted cyclic amides and their use as herbicides” (FMC CORPORATION, priority 2015, dated 2024).

Key:
Assay type in all cases: in vivo
[1] = system: velvetleaf (Abutilon theophrasti); experiment: Test G Pre-Emergence Protocol; details: Abutilon theophrasti, pre-emergence, 312 h, evaluated after 13 days; for pest or weed control at 15.625 g/ha: 15.625 g ai/ha; for pest or weed control at 15.625 g/ha / pest or weed control at 250 g/ha: read-out: Velvetleaf damage rating (100=total damage to plant; 0=no damage to plant); for pest or weed control at 62.5 g/ha: 62.5 g ai/ha, 100=total damage to plant, 0=no damage to plant, read-out: Velvetleaf damage rating; for pest or weed control at 250 g/ha: 250 g ai/ha
How it was run: (§1)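 Test compound in 0.5% Tween 20 acetone/water (50:50) was applied at three rates (15.625, 62.5, 250 g/ha) to soil sown one day earlier. After 13 days plants were scored for injury, where 0 means unaffected and 100 means completely damaged.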

corn (Zea mays) [2] = experiment: Test G Pre-Emergence Protocol; details: Zea mays, pre-emergence, 312 h, evaluated after 13 days; for plant injury at 15.625 g/ha: 15.625 g ai/ha; for plant injury at 15.625 g/ha / plant injury at 250 g/ha: read-out: Corn damage rating (100=total damage to plant; 0=no damage to plant); for plant injury at 62.5 g/ha: 62.5 g ai/ha, 100=total damage to plant, 0=no damage to plant, read-out: Corn damage rating; for plant injury at 250 g/ha: 250 g ai/ha
How it was run: as §1

[3] = system: barnyardgrass (Echinochloa crus-galli); experiment: Test G Pre-Emergence Protocol; details: Echinochloa crus-galli, pre-emergence, 312 h, evaluated after 13 days; for pest or weed control at 15.625 g/ha: 15.625 g ai/ha; for pest or weed control at 15.625 g/ha / pest or weed control at 250 g/ha: read-out: Barnyardgrass damage rating (100=total damage to plant; 0=no damage to plant); for pest or weed control at 62.5 g/ha: 62.5 g ai/ha, 100=total damage to plant, 0=no damage to plant, read-out: Barnyardgrass damage rating; for pest or weed control at 250 g/ha: 250 g ai/ha
How it was run: as §1

[4] = system: redroot pigweed (Amaranthus retroflexus); experiment: Test G Pre-Emergence Protocol; details: Amaranthus retroflexus, pre-emergence, 312 h, evaluated after 13 days; for pest or weed control at 15.625 g/ha: 15.625 g ai/ha; for pest or weed control at 15.625 g/ha / pest or weed control at 250 g/ha: read-out: Pigweed, Redroot damage rating (100=total damage to plant; 0=no damage to plant); for pest or weed control at 62.5 g/ha: 62.5 g ai/ha, 100=total damage to plant, 0=no damage to plant, read-out: Pigweed, Redroot damage rating; for pest or weed control at 250 g/ha: 250 g ai/ha
How it was run: as §1

[5] = system: ivy-leaved morning glory (Ipomoea hederacea); experiment: Test G Pre-Emergence Protocol; details: Ipomoea, pre-emergence, 312 h, evaluated after 13 days; for pest or weed control at 15.625 g/ha: 15.625 g ai/ha; for pest or weed control at 15.625 g/ha / pest or weed control at 250 g/ha: read-out: Morningglory, Ivy-leaved damage rating (100=total damage to plant; 0=no damage to plant); for pest or weed control at 62.5 g/ha: 62.5 g ai/ha, 100=total damage to plant, 0=no damage to plant, read-out: Morningglory, Ivy-leaved damage rating; for pest or weed control at 250 g/ha: 250 g ai/ha
How it was run: as §1

[6] = system: giant foxtail (Setaria faberi); experiment: Test G Pre-Emergence Protocol; details: Setaria faberi, pre-emergence, 312 h, evaluated after 13 days; for pest or weed control at 15.625 g/ha: 15.625 g ai/ha; for pest or weed control at 15.625 g/ha / pest or weed control at 250 g/ha: read-out: Foxtail, Giant damage rating (100=total damage to plant; 0=no damage to plant); for pest or weed control at 62.5 g/ha: 62.5 g ai/ha, 100=total damage to plant, 0=no damage to plant, read-out: Foxtail, Giant damage rating; for pest or weed control at 250 g/ha: 250 g ai/ha
How it was run: as §1

[7] = system: velvetleaf (Abutilon theophrasti); experiment: Test G Post-Emergence Protocol; details: Abutilon theophrasti, post-emergence, 312 h, read-out: Velvetleaf damage rating; for pest or weed control at 15.625 g/ha: 15.625 g ai/ha, evaluated after 13 days (100=total damage to plant; 0=no damage to plant); for pest or weed control at 62.5 g/ha: 62.5 g ai/ha; for pest or weed control at 62.5 g/ha / pest or weed control at 250 g/ha: evaluated after 13 days, 100=total damage to plant, 0=no damage to plant; for pest or weed control at 250 g/ha: 250 g ai/ha
How it was run: (§2)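 Sow in soil; grow 8 d (24/16 °C, 14 h light, 65% humidity); spray 15.625/62.5/250 g/ha in acetone:water 50:50 + 0.5% Tween 20; grow on, water twice daily; score damage 0–100 at 13 d.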

corn (Zea mays) [8] = experiment: Test G Post-Emergence Protocol; details: Zea mays, post-emergence, 312 h, read-out: Corn damage rating; for plant injury at 15.625 g/ha: 15.625 g ai/ha, evaluated after 13 days (100=total damage to plant; 0=no damage to plant); for plant injury at 62.5 g/ha: 62.5 g ai/ha; for plant injury at 62.5 g/ha / plant injury at 250 g/ha: evaluated after 13 days, 100=total damage to plant, 0=no damage to plant; for plant injury at 250 g/ha: 250 g ai/ha
How it was run: as §2

[9] = system: barnyardgrass (Echinochloa crus-galli); experiment: Test G Post-Emergence Protocol; details: Echinochloa crus-galli, post-emergence, 312 h, read-out: Barnyardgrass damage rating; for pest or weed control at 15.625 g/ha: 15.625 g ai/ha, evaluated after 13 days (100=total damage to plant; 0=no damage to plant); for pest or weed control at 62.5 g/ha: 62.5 g ai/ha; for pest or weed control at 62.5 g/ha / pest or weed control at 250 g/ha: evaluated after 13 days, 100=total damage to plant, 0=no damage to plant; for pest or weed control at 250 g/ha: 250 g ai/ha
How it was run: as §2

[10] = system: redroot pigweed (Amaranthus retroflexus); experiment: Test G Post-Emergence Protocol; details: Amaranthus retroflexus, post-emergence, 312 h, read-out: Pigweed, Redroot damage rating; for pest or weed control at 15.625 g/ha: 15.625 g ai/ha, evaluated after 13 days (100=total damage to plant; 0=no damage to plant); for pest or weed control at 62.5 g/ha: 62.5 g ai/ha; for pest or weed control at 62.5 g/ha / pest or weed control at 250 g/ha: evaluated after 13 days, 100=total damage to plant, 0=no damage to plant; for pest or weed control at 250 g/ha: 250 g ai/ha
How it was run: as §2

[11] = system: ivy-leaved morning glory (Ipomoea hederacea); experiment: Test G Post-Emergence Protocol; details: Ipomoea, post-emergence, 312 h, read-out: Morningglory, Ivy-leaved damage rating; for pest or weed control at 15.625 g/ha: 15.625 g ai/ha, evaluated after 13 days (100=total damage to plant; 0=no damage to plant); for pest or weed control at 62.5 g/ha: 62.5 g ai/ha; for pest or weed control at 62.5 g/ha / pest or weed control at 250 g/ha: evaluated after 13 days, 100=total damage to plant, 0=no damage to plant; for pest or weed control at 250 g/ha: 250 g ai/ha
How it was run: as §2

[12] = system: giant foxtail (Setaria faberi); experiment: Test G Post-Emergence Protocol; details: Setaria faberi, post-emergence, 312 h, read-out: Foxtail, Giant damage rating; for pest or weed control at 15.625 g/ha: 15.625 g ai/ha, evaluated after 13 days (100=total damage to plant; 0=no damage to plant); for pest or weed control at 62.5 g/ha: 62.5 g ai/ha; for pest or weed control at 62.5 g/ha / pest or weed control at 250 g/ha: evaluated after 13 days, 100=total damage to plant, 0=no damage to plant; for pest or weed control at 250 g/ha: 250 g ai/ha
How it was run: as §2

Compound	pest or weed control at 15.625 g/ha [1] [%]	pest or weed control at 62.5 g/ha [1] [%]	pest or weed control at 250 g/ha [1] [%]	plant injury at 15.625 g/ha (corn (Zea mays) [2]) [%]	plant injury at 62.5 g/ha (corn (Zea mays) [2]) [%]	plant injury at 250 g/ha (corn (Zea mays) [2]) [%]	pest or weed control at 15.625 g/ha [3] [%]	pest or weed control at 62.5 g/ha [3] [%]	pest or weed control at 250 g/ha [3] [%]	pest or weed control at 15.625 g/ha [4] [%]	pest or weed control at 62.5 g/ha [4] [%]	pest or weed control at 250 g/ha [4] [%]	pest or weed control at 15.625 g/ha [5] [%]	pest or weed control at 62.5 g/ha [5] [%]	pest or weed control at 250 g/ha [5] [%]	pest or weed control at 15.625 g/ha [6] [%]	pest or weed control at 62.5 g/ha [6] [%]	pest or weed control at 250 g/ha [6] [%]	pest or weed control at 15.625 g/ha [7] [%]	pest or weed control at 62.5 g/ha [7] [%]	further results
CCOc1cc([C@@H]2CN(C)C(=O)[C@H]2C(=O)Nc2cccc(F)c2F)cc(C(F)(F)F)n1 (racemic) [Compound 1753]	0	0	0	0	0	60	30	70	80	0	0	60	0	0	80	70	80	90	10	20	pest or weed control at 250 g/ha [7]: 30%; plant injury at 15.625 g/ha (corn (Zea mays) [8]): 60%; plant injury at 62.5 g/ha (corn (Zea mays) [8]): 60%; plant injury at 250 g/ha (corn (Zea mays) [8]): 80%; pest or weed control at 15.625 g/ha [9]: 40%; pest or weed control at 62.5 g/ha [9]: 70%; pest or weed control at 250 g/ha [9]: 70%; pest or weed control at 15.625 g/ha [10]: 0%; pest or weed control at 62.5 g/ha [10]: 20%; pest or weed control at 250 g/ha [10]: 30%; pest or weed control at 15.625 g/ha [11]: 20%; pest or weed control at 62.5 g/ha [11]: 50%; pest or weed control at 250 g/ha [11]: 60%; pest or weed control at 15.625 g/ha [12]: 60%; pest or weed control at 62.5 g/ha [12]: 60%; pest or weed control at 250 g/ha [12]: 70%
CN1C[C@H](c2cccc(C(F)F)c2)[C@@H](C(=O)Nc2ccccc2S(C)(=O)=O)C1=O (racemic) [Compound 1800]	0	10	0	0	0	0	10	40	80	10	20	10	0	0	0	20	70	90	0	0	pest or weed control at 250 g/ha [7]: 0%; plant injury at 15.625 g/ha (corn (Zea mays) [8]): 0%; plant injury at 62.5 g/ha (corn (Zea mays) [8]): 0%; plant injury at 250 g/ha (corn (Zea mays) [8]): 0%; pest or weed control at 15.625 g/ha [9]: 0%; pest or weed control at 62.5 g/ha [9]: 10%; pest or weed control at 250 g/ha [9]: 80%; pest or weed control at 15.625 g/ha [10]: 0%; pest or weed control at 62.5 g/ha [10]: 10%; pest or weed control at 250 g/ha [10]: 10%; pest or weed control at 15.625 g/ha [11]: 0%; pest or weed control at 62.5 g/ha [11]: 10%; pest or weed control at 250 g/ha [11]: 20%; pest or weed control at 15.625 g/ha [12]: 0%; pest or weed control at 62.5 g/ha [12]: 20%; pest or weed control at 250 g/ha [12]: 70%
